# Where a SMILES comes first, the peptide text is derived from it.
# Tested on: short-term antigen-specific T cell lines generated from PBMCs
# Assay: Interferon-γ ELISpot assay on short-term antigen-specific T cell lines
# Assay type: cell-based, human
# Settings: HLA restriction A24
row,Molecule,ELISpot: Immungenicity of the peptide shown by IFN-gamma ELISPOT analysis
1,83 (TFCCKCDSTL; Human papillomavirus 16) [compound 83],+

# Tested on: HPV16-positive cells
# Assay: Cytotoxicity assay (VITAL FR / live-cell imaging-based) with peptide-specific CD8+ T cells
# Design: species or system human; key: +: cytotox: Ability of peptide-specific T cells to kill HPV16-positive cells.; +*: *highlights data from published resources.; *highlights data from published resources
# Settings: HLA restriction A02
# Protocol: The flow cytometry based VITAL FR cytotoxicity assay was used as published by Stanke et al. (Stanke et al., 2010) to assess whether peptide-specific T cells are able to specifically kill HPV-transformed target cells. Briefly, two HLA-A2+ cell lines, a HPV16-negative (HPV16−) control cell line (C33A) and a HPV16-positive (HPV16+) target cell line (CaSki) were fluorescently labeled with either FarRed or CFSE and were co-incubated with peptide-specific CD8+ T cells as effector cells. After 48 h co-incubation, the fluorescently labeled cells were analyzed by flow cytometry to determine the surviving cells and calculate the specific cytolytic function of the effector cells by the ratio of target and control cells.
# CaSki and C33A cells were fluorescently labeled with CFSE and FarRed, respectively. Cells of both cell lines were harvested and resuspended in plain RPMI medium at a concentration of 1×10^6 cells/mL. For cell labeling, 5 μM CSFE were added to CaSki cells and 0.25 μM FarRed were added to C33A cells. The cells were incubated at 37° C. and the reaction was stopped after 10 min by addition of 50 mL RPMI with 10% FBS. The cells were centrifuged at 300×g for 5 min, the supernatant was discarded and the cells were resuspended in their cell culture medium. The labeled cells were seeded in T25 cell culture flasks with 1-2×10^6 cells/flask.
# On the next day, the labeled CaSki and C33A as well as the epitope-specific semi-long-term T cell lines (described in 1.6) were harvested. CD8+ T cells were isolated from the epitope-specific semi-long-term T cell lines using the MACS CD8+ T cell isolation kit (Miltenyi Biotec) according to the manufacturer's protocol for LS columns. The CD8+ T cells were resuspended in T cell medium and added to wells of a F-bottom 96-well plate in serial dilutions to achieve triplicates of 6×10^4, 3×10^4, 1.5×10^4, 0.75×10^4 and 0.375×10^4 cells per well. The CaSki and C33A cells were mixed 1:1 in T cell medium and 3×10^3 cells were added to each well containing T cells. Thereby effector:target (E:T) ratios of […] were achieved. Additionally, triplicates of mixed target cells without T cells were seeded, which is referred to as E:T 0. After 48 h incubation at 37° C., 5% C02, the cells were harvested and analyzed at a BD FACS Canto™ II analyzer using the BD FACS Diva Software Version 6. The obtained data were analyzed with the FlowJo software Version 10 by applying the same gating strategy to all samples. Subsequently, the equations (1) and (2) given below were applied in Excel (Microsoft Office 2016) to calculate specific killing.
# Semi long-term T cell lines were set up to obtain high numbers of T cells, which are required for the analysis of epitope specific cytotoxic T cell responses in VITAL FR cytotoxicity assays. Autologous DCs were generated from PBMCs as described in 1.7 and loaded with the desired HPV16 peptide. PBMCs of the same donor were thawed and resuspended in T cell medium supplemented with rhIL-7 (10 ng/mL) and rhIL-15 (20 ng/mL). 1×10^7 PBMCs/well were seeded to a 24-well plate in a total volume of 1 mL/well. Peptide-loaded DCs were added in a ratio of 50:1 (PBMCs:DCs) in 1 mL rhIL-7 (10 ng/mL) and rhIL-15 (20 ng/mL) supplemented T cell medium to achieve a final volume of 2 mL. The cell cultures were fed with rhIL-2 (final concentration: 40 U/mL) every other day. If the medium turned yellow the feeding was combined with a half medium change with 1 mL fresh IL-2 supplemented T cell medium. After eight days, the peptide stimulation with peptide-loaded DCs was repeated and cultivation was continued. On day 15, the T cell lines were harvested and used for CD8+ T cell isolation and cytotoxicity assays.
# In addition to the VITAL FR assay described herein above, a newly established live-cell imaging-based cytotoxicity assay was applied. […]
row,Molecule,cytotox: Ability of peptide-specific T cells to kill HPV16-positive cells
1,CSCC[C@H](N)C(=O)N[C@@H](CC(C)C)C(=O)N[C@@H](CC(=O)O)C(=O)N[C@@H](CC(C)C)C(=O)N[C@@H](CCC(N)=O)C(=O)N1CCC[C@H]1C(=O)N[C@@H](CCC(=O)O)C(=O)N[C@H](C(=O)O)[C@@H](C)O [compound 16] (H-MLDLQPET-OH),+
2,CC[C@H](C)[C@H](NC(=O)[C@@H]1CCCN1C(=O)[C@H](CS)NC(=O)[C@@H](NC(=O)[C@@H](NC(=O)CNC(=O)[C@H](CC(C)C)NC(=O)[C@@H](NC(=O)CNC(=O)[C@@H](N)CCSC)[C@@H](C)O)[C@@H](C)CC)C(C)C)C(=O)O [compound 33] (H-MGTLGIVCPI-OH),+
3,CSCC[C@H](NC(=O)[C@@H](N)Cc1ccc(O)cc1)C(=O)N[C@@H](CC(C)C)C(=O)N[C@@H](CC(=O)O)C(=O)N[C@@H](CC(C)C)C(=O)N[C@@H](CCC(N)=O)C(=O)N1CCC[C@H]1C(=O)N[C@@H](CCC(=O)O)C(=O)N[C@H](C(=O)N[C@H](C(=O)N[C@@H](CC(=O)O)C(=O)O)[C@@H](C)O)[C@@H](C)O [compound 15],+
4,CC[C@H](C)[C@H](NC(=O)[C@H](CC(=O)O)NC(=O)[C@H](Cc1c[nH]cn1)NC(=O)[C@@H](NC(=O)[C@@H](NC(=O)[C@@H](N)[C@@H](C)O)[C@@H](C)O)[C@@H](C)CC)C(=O)N[C@H](C(=O)N[C@@H](CC(C)C)C(=O)N[C@@H](CCC(=O)O)C(=O)N[C@@H](CS)C(=O)N[C@H](C(=O)O)C(C)C)[C@@H](C)CC [compound 49] (H-TTIHDIILECV-OH),+
5,CC[C@H](C)[C@H](N)C(=O)N[C@@H](CCCNC(=N)N)C(=O)N[C@H](C(=O)N[C@@H](CC(C)C)C(=O)N[C@@H](CCC(=O)O)C(=O)N[C@@H](CC(=O)O)C(=O)N[C@@H](CC(C)C)C(=O)N[C@@H](CC(C)C)C(=O)N[C@@H](CCSC)C(=O)NCC(=O)N[C@H](C(=O)O)[C@@H](C)O)[C@@H](C)O [compound 52] (H-IRTLEDLLMGT-OH),+
6,CSCC[C@H](NC(=O)[C@@H](N)Cc1ccc(O)cc1)C(=O)N[C@@H](CC(C)C)C(=O)N[C@@H](CC(=O)O)C(=O)N[C@@H](CC(C)C)C(=O)N[C@@H](CCC(N)=O)C(=O)N1CCC[C@H]1C(=O)N[C@@H](CCC(=O)O)C(=O)O [compound 32] (H-YMLDLQPE-OH),+
7,CC[C@H](C)[C@H](NC(=O)CNC(=O)[C@H](CC(C)C)NC(=O)[C@@H](NC(=O)CNC(=O)[C@H](CCSC)NC(=O)[C@H](CC(C)C)NC(=O)[C@H](CC(C)C)NC(=O)[C@H](CC(=O)O)NC(=O)[C@@H](N)CCC(=O)O)[C@@H](C)O)C(=O)N[C@H](C(=O)O)C(C)C [compound 21] (H-EDLLMGTLGIV-OH),+
8,CC(C)C[C@H](NC(=O)[C@@H](N)CCCNC(=N)N)C(=O)N[C@@H](CS)C(=O)N[C@H](C(=O)N[C@@H](CCC(N)=O)C(=O)N[C@@H](CO)C(=O)N[C@H](C(=O)N[C@@H](Cc1c[nH]cn1)C(=O)N[C@H](C(=O)O)C(C)C)[C@@H](C)O)C(C)C [compound 17] (H-RLCVQSTHV-OH),+
9,CC[C@H](C)[C@H](NC(=O)[C@@H]1CCCN1C(=O)[C@H](CS)NC(=O)[C@@H](NC(=O)[C@@H](NC(=O)CNC(=O)[C@H](CC(C)C)NC(=O)[C@@H](NC(=O)CNC(=O)[C@H](CCSC)NC(=O)[C@@H](N)CC(C)C)[C@@H](C)O)[C@@H](C)CC)C(C)C)C(=O)O [compound 25] (H-LMGTLGIVCPI-OH),+
10,CC[C@H](C)[C@H](NC(=O)CNC(=O)[C@H](CC(C)C)NC(=O)[C@@H](NC(=O)CNC(=O)[C@H](CCSC)NC(=O)[C@H](CC(C)C)NC(=O)[C@@H](N)CC(C)C)[C@@H](C)O)C(=O)N[C@H](C(=O)N[C@@H](CS)C(=O)N1CCC[C@H]1C(=O)O)C(C)C [compound 44] (H-LLMGTLGIVCP-OH),+

# Same assay, conditions: HLA restriction A24
row,Molecule,cytotox: Ability of peptide-specific T cells to kill HPV16-positive cells
1,83 (TFCCKCDSTL; Human papillomavirus 16) [compound 83],+
